Target: T1, human Glucose-dependent Insulinotropic Polypeptide Receptor (hGIPR) (Homo sapiens, UniProt P48546)
T1 sequence (P48546 22-466): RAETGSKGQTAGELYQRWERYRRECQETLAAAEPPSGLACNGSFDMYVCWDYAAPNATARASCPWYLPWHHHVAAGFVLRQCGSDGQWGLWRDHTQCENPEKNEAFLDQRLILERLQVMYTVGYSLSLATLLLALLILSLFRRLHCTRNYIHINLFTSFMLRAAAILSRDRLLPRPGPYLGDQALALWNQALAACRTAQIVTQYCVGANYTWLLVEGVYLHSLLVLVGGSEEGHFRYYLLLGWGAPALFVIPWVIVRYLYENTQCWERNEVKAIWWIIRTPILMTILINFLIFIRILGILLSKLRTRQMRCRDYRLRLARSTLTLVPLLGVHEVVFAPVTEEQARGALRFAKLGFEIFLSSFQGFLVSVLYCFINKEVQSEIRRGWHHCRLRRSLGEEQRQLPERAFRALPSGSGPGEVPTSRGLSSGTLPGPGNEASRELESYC
Experiment: Functional in vitro GIPR antagonist potency assay (cAMP HTRF, CHO-K1 cells stably expressing hGIPR, hGIP stimulation at about EC80)
Assay type: cell-based
Settings: geometric mean, hGIP at estimated EC80, examples marked ^2: overall geometric mean of multiple forms (including salts) tested
In short: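 CHO-K1 cells expressing hGIPR (2,000 per well) in HBSS/HEPES/0.1% BSA with 200 μM IBMX were preincubated 2 h at 37 °C with an 11-point compound series (0.5% DMSO). hGIP at about EC80 was then added for 30 min, and cAMP was read by HTRF (665/620 nm). Data were normalized between hGIP alone and full antagonism by a reference antagonist at 80 μM.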

## Cc1cc(NC(=O)N2CCC[C@@H]2C(=O)Nc2ccc(-c3ccc(C(=O)O)nc3C)cc2)ccc1C(F)(F)F [Example 167, 6-methyl-5-{4-[(1-{[3-methyl-4-(trifluoromethyl)phenyl]carbamoyl}-D-prolyl)amino]phenyl}pyridine-2-carboxylic acid]
  IC50: 7.2 nM

## Cc1cc(NC(=O)N2CCC[C@@H]2C(=O)Nc2ccc(-c3ccc(C(=O)O)nc3C)cc2)ccc1C(C)C [Example 168, 6-methyl-5-{4-[(1-{[3-methyl-4-(propan-2-yl)phenyl]carbamoyl}-D-prolyl)amino]phenyl}pyridine-2-carboxylic acid]
  IC50: 15 nM

## Cc1nc(C(=O)O)ccc1-c1ccc(NC(=O)[C@H]2CCCN2C(=O)Nc2ccc(C(F)(F)F)cc2)cc1 [Example 169, 6-methyl-5-{4-[(1-{[4-(trifluoromethyl)phenyl]carbamoyl}-D-prolyl)amino]phenyl}pyridine-2-carboxylic acid]
  IC50: 49 nM

## COc1cc(-c2ccc(NC(=O)[C@H]3CCCN3C(=O)Nc3ccc(C(F)(F)F)cc3)cc2)ccc1C(=O)O [Example 170, 3-methoxy-4′-[(1-{[4-(trifluoromethyl)phenyl]carbamoyl}-D-prolyl)amino][1,1′-biphenyl]-4-carboxylic acid]
  IC50: 40 nM

## Cc1cc(C(=O)O)ccc1-c1ccc(NC(=O)[C@H]2CCCN2C(=O)Nc2ccc(C(C)C)cc2)nc1 [Example 171, 3-methyl-4-{6-[(1-{[4-(propan-2-yl)phenyl]carbamoyl}-D-prolyl)amino]pyridin-3-yl}benzoic acid]
  IC50: 16 nM

## Cc1cc(C(=O)O)ccc1-c1ccc(NC(=O)[C@H]2CCCN2C(=O)Nc2ccc(C(F)(F)F)cc2)nc1 [Example 172, 3-methyl-4-{6-[(1-{[4-(trifluoromethyl)phenyl]carbamoyl}-D-prolyl)amino]pyridin-3-yl}benzoic acid]
  IC50: 31 nM

## Cc1cc(C(=O)O)ccc1-c1ccc(NC(=O)[C@H]2CCCN2C(=O)Nc2ccc(C(C)C)c(C)c2)nc1 [Example 173, 3-methyl-4-{6-[(1-{[3-methyl-4-(propan-2-yl)phenyl]carbamoyl}-D-prolyl)amino]pyridin-3-yl}benzoic acid]
  IC50: 4.4 nM

## Cc1cc(NC(=O)N2CCC[C@@H]2C(=O)Nc2ccc(-c3ccc(C(=O)O)nc3)cc2)ccc1C1CC1 [Example 174, 5-[4-({1-[(4-cyclopropyl-3-methylphenyl)carbamoyl]-D-prolyl}amino)phenyl]pyridine-2-carboxylic acid]
  IC50: 49 nM

## Cc1cc(NC(=O)N2CCC[C@@H]2C(=O)Nc2ccc(-c3cccc(C(=O)O)c3)cn2)ccc1C(F)(F)F [Example 175, 3-{6-[(1-{[3-methyl-4-(trifluoromethyl)phenyl]carbamoyl}-D-prolyl)amino]pyridin-3-yl}benzoic acid]
  IC50: 8.3 nM

## Cc1cc(C(=O)O)ccc1-c1ccc(NC(=O)[C@H]2CCCN2C(=O)Nc2ccc(C(C)C)c(F)c2)nc1 [Example 176, 4-{6-[(1-{[3-fluoro-4-(propan-2-yl)phenyl]carbamoyl}-D-prolyl)amino]pyridin-3-yl}-3-methylbenzoic acid]
  IC50: 11 nM

## Cc1cc(NC(=O)N2CCC[C@@H]2C(=O)Nc2ccc(-c3ccc(C(=O)O)cc3)cn2)ccc1C(F)(F)F [Example 177, 4-{6-[(1-{[3-methyl-4-(trifluoromethyl)phenyl]carbamoyl}-D-prolyl)amino]pyridin-3-yl}benzoic acid]
  IC50: 8.2 nM

## O=C(O)c1ccc(-c2ccc(NC(=O)[C@H]3CCCN3C(=O)Nc3ccc(C4(C(F)(F)F)CC4)cc3)nc2)cc1 [Example 178, 4-(6-{[1-({4-[1-(trifluoromethyl)cyclopropyl]phenyl}carbamoyl)-D-prolyl]amino}pyridin-3-yl)benzoic acid]
  IC50: 11 nM

## Cc1cc(NC(=O)N2CCC[C@@H]2C(=O)Nc2ccc(-c3ccc(C(=O)O)cc3)cn2)ccc1C1CC1 [Example 179, 4-[6-({1-[(4-cyclopropyl-3-methylphenyl)carbamoyl]-D-prolyl}amino)pyridin-3-yl]benzoic acid]
  IC50: 3.7 nM

Source: patent US20240366598A1, “GLUCOSE-DEPENDENT INSULINOTROPIC POLYPEPTIDE RECEPTOR ANTAGONISTS AND USES THEREOF” (Pfizer Inc., priority 2023, published 2024)
